EC50 data for six compounds are collected here from patent publication US10800789B2, “Antiviral compounds” (Gilead Pharmasset LLC, priority 2012, dated 2020).

Read-outs that look alike come from different tables or passages of the source.

In assay [1] the test system is stable HCV 1b RLuc replicon cells (dicistronic genotype 1b Con1 replicon). Kind of assay: Renilla luciferase HCV replicon reporter assay, genotype 1b. In kind it is cell-based. The conditions noted are these: Hepatitis C virus, 72 h, stable 1b Con1 RLuc replicon cells, 72 hours; read-out: 1b. On the procedure: (§1) Evaluation of Cell-Based Anti-HCV Activity:
(§2) Antiviral potency (EC50) was determined using a Renilla luciferase (RLuc)-based HCV replicon reporter assay. To perform the assay for genotype 1 and 2a JFH-1, stable HCV 1a RLuc replicon cells (harboring a dicistronic genotype 1a H77 replicon that encodes a RLuc reporter), stable HCV 1b RLuc replicon cells (harboring a dicistronic genotype 1b Con1 replicon that encodes a RLuc reporter), or stable HCV 2a JFH-1 Rluc replicon cells (harboring a dicistronic genotype 2a JFH-1 replicon that encodes a RLuc reporter; with L31 present in NS5A) were dispensed into 384-well plates for EC50 assays. To perform the assay for genotype 2a (with M31 present in NS5A) or 2b, NS5A chimeric genotype 2a JFH-1 replicons that encodes a RLuc-Neo reporter and either genotype 2a J6 strain NS5A gene or genotype 2b MD2b-1 strain NS5A gene (both with M31 present) respectively, were either transiently transfected (t) into Huh-Lunet cells or were established as stably replicating replicon cells (s) is provided. Either cells were dispensed into 384-well plates for EC50 assays. To perform the assay for genotype 3 and 4, NS5A chimeric genotype 1b Con1 replicons that encodes a Pi-RLuc reporter and either genotype 3a S52 strain NS5A gene or genotype 4a ED43 strain NS5A gene respectively, were transiently transfected (t) into Huh-Lunet cells, which were subsequently dispensed into 384-well plates. Compounds were dissolved in DMSO at a concentration of 10 mM and diluted in DMSO either manually or using an automated pipeting instrument. Serially 3-fold diluted compounds were either manually mixed with cell culture media and added to the seeded cells or directly added to the cells using an automated instrument. DMSO was used as a negative (solvent; no inhibition) control, and the protease inhibitor ITMN-191 was included at a concentration>100×EC50 as a positive control. 72 hours later, cells were lysed and Renilla luciferase activity quantified as recommended by the manufacturer (Promega-Madison, Wis.). Non-linear regression was performed to calculate EC50 values.

For assay [2], the system named is stable HCV 1a RLuc replicon cells (dicistronic genotype 1a H77 replicon). Kind of assay: Renilla luciferase HCV replicon reporter assay, genotype 1a. The conditions noted are these: Hepatitis C virus, 72 h, stable 1a H77 RLuc replicon cells. In kind it is cell-based. On the procedure: as §1, §2
In general terms: A replicon is a self-replicating genome or part of one, used to study replication in cells.

Assay [3] concerns stable HCV 2a JFH-1 Rluc replicon cells (L31 present in NS5A). The experiment in a line: Renilla luciferase HCV replicon reporter assay, genotype 2a JFH-1. In kind it is cell-based. As to conditions: Hepatitis C virus. On the procedure:
as §1, §2

For assay [4], the system named is NS5A chimeric genotype 2a JFH-1 replicon with genotype 2a J6 strain NS5A gene (M31 present). Kind of assay: Replicon assay, genotype 2a J6 NS5A chimera. As to conditions: Hepatitis C virus. In kind it is cell-based, HCV. On the procedure:
as §1, §2

Assay [5] deals with NS5A chimeric genotype 2a JFH-1 replicon with genotype 2b MD2b-1 strain NS5A gene (M31 present). The experiment in a line: Replicon assay, genotype 2b NS5A chimera. In kind it is cell-based, HCV. The conditions noted are these: Hepatitis C virus. On the procedure: as §1, §2
In assay [6] the test system is NS5A chimeric genotype 1b Con1 replicon with genotype 3a S52 strain NS5A gene. The experiment in a line: Replicon assay, genotype 3a NS5A chimera. Type of assay: cell-based, HCV. The conditions noted are these: Hepatitis C virus.
In assay [7] the test system is NS5A chimeric genotype 1b Con1 replicon with genotype 4a ED43 strain NS5A gene. Kind of assay: Replicon assay, genotype 4a NS5A chimera. In kind it is cell-based, HCV. As to conditions: Hepatitis C virus.
[8] abbreviates: read-out: 2a JFH (nM), genotype 2a JFH-1 replicon (L31 in NS5A), stable cells.
Setting [9] is: read-out: 2a JFH, stable 2a JFH-1 Rluc replicon cells, L31 in NS5A, activity range.
[10] abbreviates: read-out: 2a J6 (t) (nM), genotype 2a J6 NS5A chimeric replicon (M31), transiently transfected (t) into Huh-Lunet cells.
[11] abbreviates: read-out: 2a J6 (t), transiently transfected (t) into Huh-Lunet cells, activity range.
[12] abbreviates: 2BS, read-out: 2b (s), stably replicating replicon cells (s), activity range.
Setting [13] is: read-out: 2b (s) (nM), genotype 2b MD2b-1 NS5A chimeric replicon (M31), stably replicating replicon cells (s).
Where [14] appears, read: read-out: 3a (s) (nM), genotype 3a NS5A chimeric replicon, stable replicon cells (s).
Where [15] appears, read: read-out: 3a (s), (s), activity range.
[16] abbreviates: read-out: 4a (s) (nM), genotype 4a NS5A chimeric replicon, stable replicon cells (s).
Where [17] appears, read: read-out: 4a (s), (s), activity range.
Setting [18] is: read-out: 3a (t) (nM), genotype 3a NS5A chimeric replicon, transiently transfected (t).
Where [19] appears, read: read-out: 3a (t), transiently transfected (t) into Huh-Lunet cells, activity range.

As for `CC[C@H](C)[C@H](NC(=O)OC)C(=O)N1C[C@@H](COC)C[C@H]1c1nc2ccc3cc4c(cc3c2[nH]1)OCc1cc(-c2cnc([C@@H]3CC[C@H](C)N3C(=O)[C@@H](NC(=O)OC)[C@@H](C)OC)[nH]2)ccc1-4` [ED, methyl{(2S,3S)-1-[(2S,4S)-2-(9-{2-[(2S,5S)-1-{(2S,3R)-3-methoxy-2-[(methoxycarbonyl)amino]butanoyl}-5-methylpyrrolidin-2-yl]-1H-imidazol-5-yl}-1,11-dihydroisochromeno[4′,3′:6,7]naphtho[1,2-d]imidazol-2-yl)-4-(methoxymethyl)pyrrolidin-1-yl]-3-methyl-1-oxopentan-2-yl}carbamate], the EC50 in assay [1] is 0.029 nM; in assay [2], 0.015 nM; in assay [2] (activity range), less than 0.1 nM; in assay [3] (setting [8]), 0.011 nM; in assay [3] (setting [9]) it was less than 0.1 nM; in assay [4] (setting [10]), 0.021 nM. The EC50 in assay [4] (setting [11]) is less than 0.1 nM; in assay [5] (setting [12]) it was 0.1 to 0.999 nM; in assay [5] (setting [13]), 0.241 nM; in assay [6] (setting [14]) it was 0.099 nM; in assay [6] (setting [15]), less than 0.1 nM; in assay [7] (setting [16]), 0.025 nM. In addition, the EC50 in assay [7] (setting [17]) is less than 0.1 nM.

For the compound `COC[C@H]1C[C@@H](c2nc3ccc4cc5c(cc4c3[nH]2)OCc2cc(-c3cnc([C@@H]4CC[C@H](C)N4C(=O)[C@@H](NC(=O)OC)C(C)C)[nH]3)ccc2-5)N(C(=O)[C@@H](NC(=O)OC)C2CCOCC2)C1` [EF, methyl[(1 S)-2-[(2S,4S)-2-(9-{2-[(2S,5S)-1-{(2S)-2-[(methoxycarbonyl)amino]-3-methylbutanoyl}-5-methylpyrrolidin-2-yl]-1H-imidazol-5-yl}-1,11 dihydroisochromeno[4′,3′:6,7]naphtho[1,2-d]imidazol-2-yl)-4-(methoxymethyl)pyrrolidin-1-yl]-2-oxo-1-(tetra hydro-2H-pyran-4-yl)ethyl]carbamate], the EC50 in assay [1] is 0.053 nM; in assay [2], 0.039 nM; in assay [2] (activity range), less than 0.1 nM; in assay [3] (setting [8]) it was 0.014 nM; in assay [3] (setting [9]) it was less than 0.1 nM; in assay [4] (setting [10]), 0.023 nM. Also, the EC50 in assay [4] (setting [11]) is less than 0.1 nM; in assay [5] (setting [12]), less than 0.1 nM; in assay [5] (setting [13]) it was 0.091 nM; in assay [6] (setting [14]), 0.12 nM; in assay [6] (setting [15]), 0.1 to 0.999 nM; in assay [6] (setting [18]) it was 0.102 nM. Moreover, the EC50 was 0.1 to 0.999 nM in assay [6] (setting [19]), 0.02 nM in assay [7] (setting [16]) and less than 0.1 nM in assay [7] (setting [17]).

In the case of `COC(=O)NC(C(=O)N1[C@@H](C)CC[C@H]1c1nc2ccc3cc4c(cc3c2[nH]1)OCc1cc(-c2cnc([C@@H]3CC[C@H](C)N3C(=O)[C@@H](NC(=O)OC)[C@@H](C)OC)[nH]2)ccc1-4)C1CCOCC1` (stereo partly drawn) [EG, methyl{2-[(2S,5S)-2-(9-{2-[(2S,5S)-1-{(2S,3R)-3-methoxy-2-[(methoxycarbonyl)amino]butanoyl}-5-methylpyrrolidin-2-yl]-1H-imidazol-5-yl}-1,11-dihydroisochromeno[4′,3′:6,7]naphtho[1,2-d]imidazol-2-yl)-5-methylpyrrolidin-1-yl]-2-oxo-1-(tetrahydro-2H-pyran-4-yl)ethyl}carbamate], the EC50 is 0.045 nM in assay [1]; 0.036 nM in assay [2]; less than 0.1 nM in assay [2] (activity range); 0.022 nM in assay [3] (setting [8]); less than 0.1 nM in assay [3] (setting [9]); 0.023 nM in assay [4] (setting [10]). The EC50 in assay [4] (setting [11]) is less than 0.1 nM; in assay [5] (setting [12]), less than 0.1 nM; in assay [5] (setting [13]) it was 0.072 nM; in assay [6] (setting [14]), 0.076 nM; in assay [6] (setting [15]) it was less than 0.1 nM; in assay [6] (setting [18]) it was 0.103 nM. Further, the EC50 in assay [6] (setting [19]) was 0.1 to 0.999 nM; in assay [7] (setting [16]), 0.016 nM; in assay [7] (setting [17]), less than 0.1 nM.

Regarding `COC(=O)N[C@H](C(=O)N1[C@@H](C)CC[C@H]1c1nc2ccc3cc4c(cc3c2[nH]1)OCc1cc(-c2cnc([C@@H]3C[C@H](C)CN3C(=O)[C@@H](NC(=O)OC)C3CCOCC3)[nH]2)ccc1-4)C(C)C` [EJ, methyl[(2S)-1-{(2S,5S)-2-[9-(2-{(2S,4S)-1-[(2S)-2-[(methoxycarbonyl)amino]-2-(tetrahydro-2H-pyran-4-yl)acetyl]-4-methylpyrrolidin-2-yl}-1H-imidazol-5-yl)-1,11-dihydroisochromeno[4′,3′:6,7]naphtho[1,2-d]imidazol-2-yl]-5-methylpyrrolidin-1-yl}-3-methyl-1-oxobutan-2-yl]carbamate], the EC50 in assay [1] is 0.039 nM; in assay [2] it was 0.016 nM; in assay [2] (activity range), less than 0.1 nM; in assay [3] (setting [8]), 0.028 nM; in assay [3] (setting [9]), less than 0.1 nM; in assay [4] (setting [10]), 0.041 nM. The EC50 in assay [4] (setting [11]) is less than 0.1 nM; in assay [5] (setting [12]), 0.1 to 0.999 nM; in assay [5] (setting [13]), 0.112 nM; in assay [6] (setting [14]), 0.081 nM; in assay [6] (setting [15]), less than 0.1 nM; in assay [6] (setting [18]) it was 0.046 nM. The values for the EC50 in assay [6] (setting [19]), in assay [7] (setting [16]) and in assay [7] (setting [17]) were less than 0.1 nM, 0.017 nM and less than 0.1 nM, respectively.

Regarding `CC[C@H]1CC[C@@H](c2nc3ccc4cc5c(cc4c3[nH]2)OCc2cc(-c3cnc([C@@H]4CC[C@H](C)N4C(=O)[C@@H](NC(=O)OC)[C@@H](C)OC)[nH]3)ccc2-5)N1C(=O)[C@@H](NC(=O)OC)[C@@H](C)OC` [EK, methyl[(2S,3R)-1-{(2S,5S)-2-[5-(2-{(2S,5S)-5-ethyl-1-[N-(methoxycarbonyl)-O-methyl-L-threonyl]pyrrolidin-2-yl}-1,11-dihydroisochromeno[4′,3′:6,7]naphtho[1,2-d]imidazol-9-yl)-1H-imidazol-2-yl]-5-methylpyrrolidin-1-yl}-3-methoxy-1-oxobutan-2-yl]carbamate], the EC50 in assay [1] is 0.05 nM; in assay [2], 0.034 nM; in assay [2] (activity range), less than 0.1 nM; in assay [3] (setting [8]), 0.03 nM; in assay [3] (setting [9]), less than 0.1 nM; in assay [4] (setting [10]), 0.116 nM. The EC50 is 0.1 to 0.999 nM in assay [4] (setting [11]); 0.1 to 0.999 nM in assay [5] (setting [12]); 0.238 nM in assay [5] (setting [13]); 0.173 nM in assay [6] (setting [14]); 0.1 to 0.999 nM in assay [6] (setting [15]); 0.025 nM in assay [7] (setting [16]). Further, in assay [7] (setting [17]), the EC50 is less than 0.1 nM.

For `CC[C@H]1CC[C@@H](c2ncc(-c3ccc4c(c3)COc3cc5c(ccc6nc([C@@H]7CC[C@H](C)N7C(=O)[C@@H](NC(=O)OC)[C@@H](C)OC)[nH]c65)cc3-4)[nH]2)N1C(=O)[C@@H](NC(=O)OC)[C@@H](C)OC` [EM, methyl[(2S,3R)-1-{(2S,5S)-2-ethyl-5-[5-(2-{(2S,5S)-1-[N-(methoxycarbonyl)-O-methyl-L-threonyl]-5-methylpyrrolidin-2-yl}-1,11dihydroisochromeno[4′,3′:6,7]naphtho[1,2-d]imidazol-9-yl)-1H-imidazol-2-yl]pyrrolidin-1-yl}-3-methoxy-1-oxobutan-2-yl]carbamate], the EC50 in assay [1] was 0.02 nM; in assay [2] it was 0.013 nM; in assay [2] (activity range) it was less than 0.1 nM; in assay [3] (setting [8]) it was 0.012 nM; in assay [3] (setting [9]) it was less than 0.1 nM; in assay [4] (setting [10]) it was 0.043 nM. The EC50 was less than 0.1 nM in assay [4] (setting [11]); less than 0.1 nM in assay [5] (setting [12]); 0.082 nM in assay [5] (setting [13]); 0.061 nM in assay [6] (setting [14]); less than 0.1 nM in assay [6] (setting [15]); 0.008 nM in assay [7] (setting [16]). The EC50 in assay [7] (setting [17]) was less than 0.1 nM.
